Activity calls are given as the source filed them. The rule behind the calls is not given here.
Legend:
DU-145 = experiment: Cytotoxicity against human DU145 cells after 72 hrs by MTT assay; type: functional, cell-based; details: DU-145, 72 h
HeLa [1] = experiment: Cytotoxicity against human HeLa cells after 72 hrs by MTT assay; type: functional, cell-based
B16 = experiment: Cytotoxicity against mouse B16 cells after 72 hrs by MTT assay; type: functional, cell-based; details: B16, 72 h
COLO 205 = experiment: Cytotoxicity against human COLO205 cells after 72 hrs by MTT assay; type: functional, cell-based; details: COLO 205, 72 h
PC-3 = experiment: Cytotoxicity against human PC3 cells after 72 hrs by MTT assay; type: functional, cell-based; details: PC-3, 72 h
HT-29 = experiment: Cytotoxicity against human HT-29 cells after 72 hrs by MTT assay; type: functional, cell-based; details: HT-29, 72 h
[2] = Cytotoxicity against human ME180 cells after 72 hrs by MTT assay; type: functional, cell-based; details: ME-180, 72 h
HeLa [3] = experiment: Cell cycle arrest in human HeLa cells assessed as accumulation at S phase at 0.5 uM after 24 hrs by propidium iodide staining-based FACS analysis (reference value: 4.62%); type: functional
HeLa [4] = experiment: Induction of apoptosis in human HeLa cells assessed as DNA fragmentation at 1 to 2 uM after 48 hrs by agarose gel electrophoresis; type: functional, cell-based
Tubulin (Homo sapiens) [5] = biological target: T1, Tubulin (Homo sapiens) (UniProt P68371+Q9H4B7+P0DPH7+P68366+Q13509+Q71U36+P04350+Q3ZCM7+P07437+P68363+Q9BQE3+Q6PEY2+Q13885+Q9BVA1+Q9BUF5); experiment: Inhibition of tubulin polymerization in human HeLa cells assessed as disruption of microtubule organization at 1 uM after 48 hrs by immunohistochemical analysis; type: cell-based
HeLa [6] = experiment: Induction of apoptosis in human HeLa cells assessed as presence of apoptotic bodies at 1 uM after 48 hrs by Hoechst 33342 staining-based fluorescence microscopic analysis; type: functional, cell-based
HeLa [7] = experiment: Induction of apoptosis in human HeLa cells assessed as caspase-3 activation at 2 uM after 48 hrs by Ac-DEVD fluorescence assay relative to control; type: functional
HeLa [8] = experiment: Induction of apoptosis in human HeLa cells assessed as […] condensation at 1 uM after 48 hrs by Hoechst 33342 staining-based fluorescence microscopic analysis; type: functional, cell-based
HeLa [9] = experiment: Induction of apoptosis in human HeLa cells assessed as nuclear fragmentation at 1 uM after 48 hrs by Hoechst 33342 staining-based fluorescence microscopic analysis; type: functional, cell-based
Tubulin = experiment: Inhibition of tubulin (unknown origin) polymerization measured for 1 hr by fluorescence assay in presence of GTP; type: protein-complex assay, Homo sapiens
Tubulin (Homo sapiens) [10] = biological target: T1, Tubulin (Homo sapiens); experiment: Inhibition of tubulin (unknown origin) polymerization at 5 uM measured for 1 hr by fluorescence assay in presence of GTP relative to control; type: protein-complex assay
HeLa [11] = experiment: Cell cycle arrest in human HeLa cells assessed as accumulation at G2/M phase at 0.5 uM after 24 hrs by propidium iodide staining-based FACS analysis (reference value: 21.10%); type: functional
HeLa [12] = experiment: Cell cycle arrest in human HeLa cells assessed as accumulation at sub-G1 phase at 0.5 uM after 24 hrs by propidium iodide staining-based FACS analysis (reference value: 3.07%); type: functional
HeLa [13] = experiment: Cell cycle arrest in human HeLa cells assessed as accumulation at G1 phase at 0.5 uM after 24 hrs by propidium iodide staining-based FACS analysis (reference value: 71.21%); type: functional

Compound	IC50 (DU-145)	IC50 (HeLa [1])	IC50 (B16)	IC50 (COLO 205)	IC50 (PC-3)	IC50 (HT-29)	IC50 [2]	Activity (HeLa [3])	Activity (HeLa [4])	inhibition (Tubulin (Homo sapiens) [5])	Activity (HeLa [6])	fold change (FC) (HeLa [7])	Activity (HeLa [8])	Activity (HeLa [9])	IC50 (Tubulin)	inhibition (Tubulin (Homo sapiens) [10])	Activity (HeLa [11])	Activity (HeLa [12])	Activity (HeLa [13])
COc1ccc(/C=C/C(=O)Nc2cc(C(=O)c3cc(OC)c(OC)c(OC)c3)cc(OC)c2OC)cc1N	12.7 µM	15.8 µM	12.7 µM	10.1 µM	11.1 µM	7.7 µM	13.9 µM												
COc1cc(C(=O)c2cc(OC)c(OC)c(OC)c2)cc(NC(=O)/C=C/c2cc(OC)c(OC)c(OC)c2)c1OC	6.6 µM	2.5 µM	2.5 µM	5.3 µM	4.8 µM	3.1 µM	3.9 µM												
COc1ccc(C(=O)c2cc(OC)c(OC)c(OC)c2)cc1NC(=O)/C=C/c1ccc(F)cc1	3.9 µM	0.06 µM	0.4 µM	3.4 µM	3.2 µM	1.8 µM	0.3 µM	7.4%	Active	Active	Active	5	Active	Active	600 nM	60.5%	36.62%	2.96%	53.02%
COc1cc(C(=O)c2cc(OC)c(OC)c(OC)c2)cc(N)c1OC	10 µM	13.5 µM	12.5 µM	4.4 µM	7.4 µM	3.8 µM	12.2 µM												
COc1ccc(C(=O)c2cc(OC)c(OC)c(OC)c2)cc1NC(=O)/C=C/c1ccc(OC)c(OC)c1	10.2 µM	7.8 µM	6.3 µM	8.2 µM	7.5 µM	2.5 µM	8.9 µM												
COc1ccc(C(=O)c2cc(OC)c(OC)c(OC)c2)cc1NC(=O)/C=C/c1ccc(C(F)(F)F)cc1	4.3 µM	0.09 µM	0.1 µM	2.6 µM	3.5 µM	1.6 µM	0.8 µM	5.92%	Active	Active	Active	5	Active	Active	700 nM	59.4%	38.82%	5.66%	49.59%
COc1ccc(C(=O)c2cc(OC)c(OC)c(OC)c2)cc1NC(=O)/C=C/c1cccc(OC(F)(F)F)c1	10.2 µM	7.9 µM	6.3 µM	7.9 µM	7.7 µM	5.2 µM	9.2 µM												
C#CCOc1cccc(/C=C/C(=O)Nc2cc(C(=O)c3cc(OC)c(OC)c(OC)c3)cc(OC)c2OC)c1	13.5 µM	7.3 µM	5.1 µM	11.2 µM	10.1 µM	8.1 µM	8.4 µM												
COc1ccc(C(=O)c2cc(OC)c(OC)c(OC)c2)cc1NC(=O)/C=C/c1ccc(N)cc1	13.5 µM	14.7 µM	7.9 µM	10.3 µM	15.9 µM	5.6 µM	16 µM												
COc1ccc(C(=O)c2cc(OC)c(OC)c(OC)c2)cc1NC(=O)/C=C/c1cc(OC)c(OC)c(OC)c1	6.3 µM	1.5 µM	1.2 µM	5.2 µM	3.9 µM	3.1 µM	2.1 µM												
COc1ccc(/C=C/C(=O)Nc2cc(C(=O)c3cc(OC)c(OC)c(OC)c3)cc(OC)c2OC)cc1OC	7.8 µM	2.7 µM	1.3 µM	5.7 µM	5.4 µM	2.3 µM	6.7 µM												
COc1cc(C(=O)c2cc(OC)c(OC)c(OC)c2)cc(NC(=O)/C=C/c2ccc(F)cc2)c1OC	6.7 µM	0.9 µM	0.9 µM	3.1 µM	4.1 µM	1.8 µM	1 µM												

Source: ChEMBL document CHEMBL3259744, “Synthesis and biological evaluation of cinnamido linked benzophenone hybrids as tubulin polymerization inhibitors and apoptosis inducing agents” (Bioorg Med Chem Lett, 2014)
